According to patent US8324265B2, “Heterocyclic compounds having type I 11β hydroxysteroid dehydrogenase inhibitory activity” (Shionogi & Co., Ltd., priority 2005, dated 2012):

What was measured:
[1] = biological target: recombinant human 11β-HSD1 (Homo sapiens, UniProt P28845); test: Enzyme activity assay on human 11β-HSD1 (HTRF); assay type: biochemical; conditions: recombinant human 11β-HSD1, 5μM cortisone as substrate, 2 hours at 37° C.; read-out: humanIC50
Protocol: Evaluation of 11β-HSD1 Inhibitors (Enzyme Activity Assay on Human 11β-HSD1)
Enzymatic activity for human 11β-HSD1 was determined in a 10 μl final volume of assay mixture containing 50 mM sodium phosphate buffer (pH 7.6), 1 mg/ml bovine serum albumin, 0.42 mg/ml NADPH, 1.26 mg/ml glucose-6-phosphate, glucose-6-phosphate dehydrogenase, test compound, recombinant human 11β-HSD1, and 5μM cortisone as substrate. The reaction was started with the addition of cortisone. After incubation for 2 hours at 37° C., 5μl of europium cryptate-labelled anti-cortisol antibody and 5μl of XL665-labeled cortisol were added. After further incubation for 2 hours at room temperature, the homogeneous time-resolved fluorescence (HTRF) signal was measured. The cortisol production was quantitated by a standard curve generated with several known concentrations of cortisol in each assay.
(§1) The amount of cortisol production without compounds was served as control, and the percent inhibition by test compound at each concentration was calculated. The IC50 value of the compound for 11β-HSD1 was obtained using the inhibition curve generated by plotting the percent inhibition versus the concentration of test compound.

[2] = biological target: recombinant mouse 11β-HSD1 (Mus musculus, UniProt P50172); test: Enzyme activity assay on mouse 11β-HSD1 (HTRF); assay type: biochemical; conditions: recombinant mouse 11β-HSD1, 2μM 11-dehydrocorticosterone as substrate, 2 hours at 37° C.; read-out: mouseIC50
Protocol: Evaluation of 11β-HSD1 Inhibitors (Enzyme Activity Assay on Mouse 11β-HSD1)
Enzymatic activity for mouse 11β-HSD1 activity was determined in a 10μl final volume of assay mixture containing 50 mM sodium phosphate buffer (pH 7.6), 1 mg/ml bovine serum albumin, 0.42 mg/ml NADPH, 1.26 mg/ml glucose-6-phosphate, glucose-6-phosphate dehydrogenase, test compound, recombinant mouse 11β-HSD1, and 2μM 11-dehydrocorticosterone as substrate. The reaction was started with the addition of 11-dehydrocorticosterone. After incubation for 2 hours at 37° C., 5μl of europium cryptate-labelled anti-cortisol antibody and 5μl of XL665-labeled cortisol were added. After further incubation for 2 hours at room temperature, the HTRF signal was measured. The corticosterone production was quantitated by a standard curve generated with several known concentrations of corticosterone in each assay.
as §1, with “corticosterone” for “cortisol”, “by” for “by test”

Sequence of recombinant human 11β-HSD1 (P28845 whole entry): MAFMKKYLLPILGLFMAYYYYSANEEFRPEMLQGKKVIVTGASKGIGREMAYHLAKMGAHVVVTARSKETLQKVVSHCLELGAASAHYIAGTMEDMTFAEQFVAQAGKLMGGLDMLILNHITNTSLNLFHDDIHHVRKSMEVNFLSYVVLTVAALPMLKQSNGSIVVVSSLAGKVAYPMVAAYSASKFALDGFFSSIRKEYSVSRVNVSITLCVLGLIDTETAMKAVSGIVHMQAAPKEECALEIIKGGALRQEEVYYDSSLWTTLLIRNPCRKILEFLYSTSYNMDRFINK
Sequence of recombinant mouse 11β-HSD1 (P50172 whole entry): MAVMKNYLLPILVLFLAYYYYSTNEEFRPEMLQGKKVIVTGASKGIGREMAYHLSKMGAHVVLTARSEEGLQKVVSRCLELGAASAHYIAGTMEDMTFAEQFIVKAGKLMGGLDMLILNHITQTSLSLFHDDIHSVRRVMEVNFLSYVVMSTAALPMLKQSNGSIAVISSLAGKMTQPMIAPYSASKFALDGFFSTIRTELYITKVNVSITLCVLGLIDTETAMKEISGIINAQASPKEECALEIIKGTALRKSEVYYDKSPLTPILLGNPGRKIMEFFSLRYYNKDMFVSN

Row | IC50 [1] | IC50 [2] | melting point | Structure (SMILES)
1 | 190 nM | 5.9 µM | – | Cn1ncc(C(=O)NC23CC4CC(CC(C4)C2)C3)c1OCc1ccccc1 [Compound A-1]
2 | 270 nM | 11 µM | – | Cn1ncc(C(=O)NC23CC4CC(CC(C4)C2)C3)c1Sc1ccccc1 [Compound A-2]
3 | 37 nM | 1.6 µM | – | Cn1ncc(C(=O)NC2C3CC4CC(C3)CC2C4)c1OCc1ccccc1 (centres unmarked) [Compound A-4]
4 | 18 nM | 0.71 µM | – | Cn1ncc(C(=O)NC2C3CC4CC(C3)CC2C4)c1OCCc1ccccc1 (centres unmarked) [Compound A-7]
5 | – | – | 68 to 69 °C | Cn1ncc(C(=O)NC2C3CC4CC(C3)CC2C4)c1OCCc1ccsc1 (centres unmarked) [Compound A-64]

The next lines start with the compound.

Row | Structure (SMILES) | IC50 [1] | IC50 [2] | melting point
6 | Cn1ncc(C(=O)NC23CC4CC(CC(C4)C2)C3)c1Oc1ccccc1 [Compound A-3] | 300 nM | 24.1 µM | –
7 | Cn1cc(C(=O)NC2C3CC4CC(C3)CC2C4)c(OCc2ccccc2)n1 (centres unmarked) [Compound A-5] | 710 nM | > 30 µM | –
8 | Cn1ncc(C(=O)NC2C3CC4CC(C3)CC2C4)c1OC1CCCCC1 (centres unmarked) [Compound A-6] | 8.3 nM | 0.94 µM | –
9 | Cn1ncc(C(=O)NC2C3CC4CC(C3)CC2C4)c1OCC1CCC1 (centres unmarked) [Compound A-63] | – | – | 84 to 85 °C
10 | CCC(CC)COc1c(C(=O)NC2C3CC4CC(C3)CC2C4)cnn1C (centres unmarked) [Compound A-65] | – | – | 89 to 90 °C
